Structures are written as SMILES. Values joined by “and” are separate entries in the source; they are usually repeats but may differ in a detail not shown here. Identical values can stand only once. Toxic doses and inconclusive results are not listed.

This experiment concerns L1210 leukemia ip in BDF1 mice, survival T/C. Nature of the experiment: NCI In Vivo Anticancer Drug Screen. Data for tumor model L1210 Leukemia (intraperitoneal) in B6D2F1 (BDF1) mice. To be noted: endpoint: mean survival time, higher = longer survival. In outline: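 Antitumor effect is assessed in tumor-bearing animals. Survival in the compound arm is compared with a vehicle-dosed control arm and expressed as their quotient.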

Setting [1] is: dose: 50.0 mg/kg/injection, schedule: Q01DX009 (ip), vehicle: Klucel (hydroxypropylcellulose) (HPC).
[2] abbreviates: dose: 100.0 mg/kg/injection, schedule: Q01DX009 (ip), vehicle: Klucel (hydroxypropylcellulose) (HPC).
Setting [3] is: dose: 200.0 mg/kg/injection, schedule: Q01DX009 (ip), vehicle: Klucel (hydroxypropylcellulose) (HPC).
[4] abbreviates: dose: 400.0 mg/kg/injection, schedule: Q01DX009 (ip), vehicle: Klucel (hydroxypropylcellulose) (HPC).
Setting [5] is: dose: 100.0 mg/kg/injection, schedule: Q04DX003 (ip), vehicle: Klucel (hydroxypropylcellulose) (HPC).
The mark [6] stands for this setting: dose: 200.0 mg/kg/injection, schedule: Q04DX003 (ip), vehicle: Klucel (hydroxypropylcellulose) (HPC).
The mark [7] stands for this setting: dose: 400.0 mg/kg/injection, schedule: Q04DX003 (ip), vehicle: Klucel (hydroxypropylcellulose) (HPC).
Setting [8] is: dose: 100.0 mg/kg/injection, schedule: Q01DX001 (ip), vehicle: saline.
The mark [9] stands for this setting: dose: 400.0 mg/kg/injection, schedule: Q01DX001 (ip), vehicle: carboxymethylcellulose (CMC).
Setting [10] is: dose: 100.0 mg/kg/injection, schedule: Q04DX003 (ip), vehicle: saline with Tween-80.
Where [11] appears, read: dose: 200.0 mg/kg/injection, schedule: Q04DX003 (ip), vehicle: saline with Tween-80.
[12] abbreviates: dose: 400.0 mg/kg/injection, schedule: Q04DX003 (ip), vehicle: saline with Tween-80.

As to `c1cc[c]([Pb]([S]c2ccccn2)([c]2ccccc2)[c]2ccccc2)cc1`, the T/C runs as follows: (dose: 0.78 mg/kg/injection, schedule: Q01DX009 (ip), vehicle: Klucel (hydroxypropylcellulose) (HPC)) 96 % of control; (dose: 1.56 mg/kg/injection, schedule: Q01DX009 (ip), vehicle: Klucel (hydroxypropylcellulose) (HPC)) 94 % of control; (dose: 3.12 mg/kg/injection, schedule: Q01DX009 (ip), vehicle: Klucel (hydroxypropylcellulose) (HPC)) 106 % of control and 89 % of control; (dose: 25.0 mg/kg/injection, schedule: Q04DX002 (ip), vehicle: Klucel (hydroxypropylcellulose) (HPC)) 100 % of control; (dose: 50.0 mg/kg/injection, schedule: Q04DX002 (ip), vehicle: Klucel (hydroxypropylcellulose) (HPC)) 88 % of control.

Regarding `CC(C)(N)CBr`, the T/C is 100 % of control (dose: 100.0 mg/kg/injection, schedule: Q04DX002 (ip), vehicle: saline); 113 % of control (dose: 200.0 mg/kg/injection, schedule: Q04DX002 (ip), vehicle: saline); 95 % of control (dose: 400.0 mg/kg/injection, schedule: Q04DX002 (ip), vehicle: saline).

For the compound `O=C(/C=C/c1ccccc1)Nc1cc([N+](=O)[O-])ccc1O`, the T/C reads like this: under setting [1], 97 % of control; under setting [2], 94 % of control and 87 % of control; under setting [3], 94 % of control and 97 % of control; under setting [4], 87 % of control.

As for `CCOC(=O)c1cnc(SC)nc1Nc1ccc(C)cc1C`, the T/C is, setting by setting: under setting [2], 96 % of control; under setting [3], 101 % of control; under setting [4], 109 % of control.

Regarding `CCOC(=O)CCC1C(C#N)C2(Cl)C(Cl)=C(Cl)C1(Cl)C2(Cl)Cl` (configuration not stated), the T/C by setting is: under setting [2], 98 % of control; under setting [5], 93 % of control; under setting [3], 98 % of control; under setting [6], 93 % of control; under setting [4], 96 % of control; under setting [7], 92 % of control.

`Cc1ccc(S(=O)(=O)OCC2OC(OCc3ccccc3)C3OC(C)(C)OC23)cc1` (configuration not stated): the T/C was 91 % of control (dose: 50.0 mg/kg/injection, schedule: Q04DX003 (ip), vehicle: Klucel (hydroxypropylcellulose) (HPC)); 88 % of control under setting [6]; 92 % of control under setting [7].

Regarding `O=[N+]([O-])c1ccc(NCCO)cc1`, the T/C (dose: 50.0 mg/kg/injection, schedule: Q01DX001 (ip), vehicle: saline) is 96 % of control; the T/C under setting [8] was 96 % of control; the T/C (dose: 200.0 mg/kg/injection, schedule: Q01DX001 (ip), vehicle: saline) was 102 % of control; the T/C (dose: 400.0 mg/kg/injection, schedule: Q01DX001 (ip), vehicle: saline) is 96 % of control.

Consider `Cc1ccc(C(C)C)c(OCC(O)Cn2ccnc2)c1` (configuration not stated), for which the T/C was 103 % of control (dose: 20.0 mg/kg/injection, schedule: Q01DX001 (ip), vehicle: saline); 101 % of control (dose: 40.0 mg/kg/injection, schedule: Q01DX001 (ip), vehicle: saline); 88 % of control (dose: 80.0 mg/kg/injection, schedule: Q01DX001 (ip), vehicle: saline); 94 % of control under setting [8].

Regarding `CN(C)[C@@H]1C(=O)C(C(=O)NCNc2cccc(C(=O)O)c2C(=O)O)=C(O)[C@@]2(O)C(=O)C3=C(O)c4c(O)cccc4[C@@](C)(O)[C@H]3C[C@@H]12`, the T/C by setting is: (dose: 100.0 mg/kg/injection, schedule: Q01DX Z (ip), vehicle: saline) 110 % of control; (dose: 150.0 mg/kg/injection, schedule: Q01DX Z (ip), vehicle: saline) 105 % of control; (dose: 225.0 mg/kg/injection, schedule: Q01DX Z (ip), vehicle: saline) 104 % of control; (dose: 340.0 mg/kg/injection, schedule: Q01DX Z (ip), vehicle: saline) 103 % of control.

In the case of `C/C(=N/N=C(N)N)c1ccc(NC(=S)Nc2ccc(/C(C)=N/N=C(N)N)cc2)cc1`, the T/C (dose: 20.0 mg/kg/injection, schedule: Q01DX009 (ip), vehicle: water) is 176 % of control.

Consider `N#Cc1ccc[nH]1`, for which the T/C reads like this: (dose: 100.0 mg/kg/injection, schedule: Q01DX001 (sc), vehicle: carboxymethylcellulose (CMC)) 121 % of control; (dose: 177.0 mg/kg/injection, schedule: Q01DX001 (ip), vehicle: carboxymethylcellulose (CMC)) 108 % of control; (dose: 200.0 mg/kg/injection, schedule: Q01DX001 (sc), vehicle: carboxymethylcellulose (CMC)) 110 % of control; (dose: 266.0 mg/kg/injection, schedule: Q01DX001 (ip), vehicle: carboxymethylcellulose (CMC)) 96 % of control; under setting [9], 102 % of control.

For `Cc1cc2ccc(OC(=O)c3ccc(N=C(N)N)cc3)cc2oc1=O`, the T/C was 97 % of control under setting [10], 95 % of control under setting [11] and 98 % of control under setting [12].

`CC(CC(C)(C)C)C(=O)CCC(C)(C)C` (configuration not stated): the T/C was 103 % of control (dose: 100.0 mg/kg/injection, schedule: Q01DX001 (ip), vehicle: saline with Tween-80); 95 % of control (dose: 200.0 mg/kg/injection, schedule: Q01DX001 (ip), vehicle: saline with Tween-80); 101 % of control (dose: 400.0 mg/kg/injection, schedule: Q01DX001 (ip), vehicle: saline with Tween-80).

Take `NNc1c(Cl)c(F)c(Cl)c(F)c1Cl`: the T/C was 104 % of control (dose: 100.0 mg/kg/injection, schedule: Q01DX001 (ip), vehicle: carboxymethylcellulose (CMC)); 97 % of control (dose: 200.0 mg/kg/injection, schedule: Q01DX001 (ip), vehicle: carboxymethylcellulose (CMC)); 104 % of control under setting [9].

In the case of `CC(=O)[O][Sn]([c]1ccccc1)([c]1ccccc1)[c]1ccccc1`, the T/C reads like this: (dose: 0.39 mg/kg/injection, schedule: Q01DX009 (ip), vehicle: saline with Tween-80) 98 % of control; (dose: 0.78 mg/kg/injection, schedule: Q01DX009 (ip), vehicle: saline with Tween-80) 93 % of control; (dose: 1.0 mg/kg/injection, schedule: Q01DX015 (ip), vehicle: saline) 97 % of control; (dose: 1.56 mg/kg/injection, schedule: Q01DX009 (ip), vehicle: saline with Tween-80) 106 % of control; (dose: 1.56 mg/kg/injection, schedule: Q04DX003 (ip), vehicle: saline) 106 % of control; (dose: 2.0 mg/kg/injection, schedule: Q01DX015 (ip), vehicle: saline) 89 % of control. Besides, the T/C runs as follows: (dose: 2.33 mg/kg/injection, schedule: Q01DX009 (ip), vehicle: saline with Tween-80) 105 % of control; (dose: 3.54 mg/kg/injection, schedule: Q01DX009 (ip), vehicle: saline with Tween-80) 100 % of control.

Consider `CCCOc1ccc(C2=NCC(C)S2)c(C)c1` (configuration not stated), for which the T/C by setting is: (dose: 12.5 mg/kg/injection, schedule: Q01DX009 (ip), vehicle: Klucel (hydroxypropylcellulose) (HPC)) 94 % of control; (dose: 25.0 mg/kg/injection, schedule: Q01DX009 (ip), vehicle: Klucel (hydroxypropylcellulose) (HPC)) 91 % of control; under setting [1], 98 % of control and 90 % of control; (dose: 100.0 mg/kg/injection, schedule: Q01DX005 (ip), vehicle: Klucel (hydroxypropylcellulose) (HPC)) 101 % of control; (dose: 200.0 mg/kg/injection, schedule: Q01DX005 (ip), vehicle: Klucel (hydroxypropylcellulose) (HPC)) 89 % of control.

With `O=c1c2ccccc2c(=O)c2c1ccc1[nH]c3ccccc3n(-c3ccccc3)c12`, the T/C under setting [10] is 88 % of control, the T/C under setting [11] was 89 % of control and the T/C under setting [12] is 94 % of control.

`Cc1nc(-c2ccc(N=Cc3ccc(N(CCOS(C)(=O)=O)CCOS(C)(=O)=O)cc3)cc2)cs1`: the T/C is, setting by setting: (dose: 2.5 mg/kg/injection, schedule: Q04DX003 (ip), vehicle: Klucel (hydroxypropylcellulose) (HPC)) 106 % of control; (dose: 5.0 mg/kg/injection, schedule: Q04DX003 (ip), vehicle: Klucel (hydroxypropylcellulose) (HPC)) 113 % of control; (dose: 10.0 mg/kg/injection, schedule: Q04DX003 (ip), vehicle: Klucel (hydroxypropylcellulose) (HPC)) 120 % of control; under setting [5], 118 % of control; under setting [6], 88 % of control.

Values taken from PubChem BioAssay AID248 (DTP/NCI, 2004).
